Experimental findings from paper PMC8694192, “Synthesis and biological evaluation of new derivatives of thieno-thiazole and dihydrothiazolo-thiazole scaffolds integrated with a pyrazoline nucleus as anticancer and multi-targeting kinase inhibitors” (RSC Advances, 2021) are described below.

Data set [1] deals with C. albicans ATCC 10231. The data set can be described thus: MIC, two-fold serial dilution. To be noted: Candida albicans, ATCC10231, read-out: MIC C. albicans ATCC 10231.
The test system of data set [2] is P. aeruginosa. The data set is described as follows: MIC, two-fold serial dilution. The conditions noted are these: Pseudomonas aeruginosa, read-out: MIC P. aeruginosa.
For data set [3], the system named is E. coli RCMB 010052. The data set can be described thus: MIC, two-fold serial dilution. To be noted: Escherichia coli, RCMB010052, read-out: MIC E. coli RCMB 010052.
For data set [4], the system named is S. pneumoniae 010010. The data set can be described thus: MIC, two-fold serial dilution. The conditions noted are these: Streptococcus pneumoniae, 010010, read-out: MIC S. pneumoniae 010010.
In data set [5] the test system is S. aureus 25923. The data set can be described thus: Agar well diffusion, inhibition zone. Format: cell-based. To be noted: Staphylococcus aureus, 25923, read-out: Mean diameter of inhibition zone (mean ± SEM) S. aureus 25923.
Data set [6] deals with S. pneumoniae 010010. The data set is described as follows: Agar well diffusion, inhibition zone. Format: cell-based. The conditions noted are these: Streptococcus pneumoniae, 010010, read-out: Mean diameter of inhibition zone (mean ± SEM) S. pneumoniae 010010. (In general: Agar diffusion results depend on both activity and mobility in agar.)
For data set [7], the system named is P. aeruginosa. The data set can be described thus: Agar well diffusion, inhibition zone. Format: cell-based. The conditions noted are these: Pseudomonas aeruginosa, read-out: Mean diameter of inhibition zone (mean ± SEM) P. aeruginosa.
Data set [8] concerns E. coli RCMB 010052. The data set is described as follows: Agar well diffusion, inhibition zone. Format: cell-based. To be noted: Escherichia coli, RCMB010052, read-out: Mean diameter of inhibition zone (mean ± SEM) E. coli RCMB 010052.
Data set [9] relates to S. typhi ATCC 14028. The data set can be described thus: Agar well diffusion, inhibition zone. Format: cell-based. The conditions noted are these: Salmonella enterica, read-out: Mean diameter of inhibition zone (mean ± SEM) S. typhi ATCC 14028.
In data set [10] the test system is A. fumigatus RCMB 02568. The data set is described as follows: Agar well diffusion, inhibition zone. Format: cell-based. To be noted: Aspergillus fumigatus, RCMB02568, read-out: Mean diameter of inhibition zone (mean ± SEM) A. fumigatus RCMB 02568.
The subject of data set [11] is C. albicans ATCC 10231. The data set can be described thus: Agar well diffusion, inhibition zone. Format: cell-based. To be noted: Candida albicans, ATCC10231, read-out: Mean diameter of inhibition zone (mean ± SEM) C. albicans ATCC 10231.
Data set [12] relates to A. fumigatus RCMB 02568. The data set is described as follows: MIC, two-fold serial dilution. To be noted: Aspergillus fumigatus, RCMB02568, read-out: MIC A. fumigatus RCMB 02568.
In data set [13] the test system is S. typhi ATCC 14028. The data set can be described thus: MIC, two-fold serial dilution. Format: cell-based. The conditions noted are these: Salmonella enterica, read-out: MIC S. typhi ATCC 14028.
Another data set relates to HepG-2 cells. The data set is described as follows: In vitro cytotoxicity, MTT assay, HepG-2. To be noted: Homo sapiens, HepG2, read-out: IC50 HepG-2. (Tetrazolium dyes change colour on reduction, which living cells bring about.)
Data set [14] deals with E. faecalis. The data set can be described thus: MIC, two-fold serial dilution. To be noted: Enterococcus faecalis, read-out: MIC E. faecalis.
In the next data set the test system is MCF-7 cells. The data set is described as follows: In vitro cytotoxicity, MTT assay, MCF-7. The conditions noted are these: Homo sapiens, MCF7, read-out: IC50 MCF-7.
In data set [15] the test system is S. aureus 25923. The data set can be described thus: MIC, two-fold serial dilution. To be noted: Staphylococcus aureus, 25923, read-out: MIC S. aureus 25923.
Data set [16] relates to E. faecalis. The data set can be described thus: Agar well diffusion, inhibition zone. Format: cell-based. To be noted: Enterococcus faecalis, read-out: Mean diameter of inhibition zone (mean ± SEM) E. faecalis.

The structures appear in SMILES notation. Converted amounts (≈) assume the structure as drawn.

What is called MIC is the least concentration at which growth counts as inhibited. The zone of inhibition is the size of the clear area around the sample on an inoculated plate. For orientation: IC50 means the concentration that inhibits the measured activity by half. The term melting point denotes the temperature, or range, at which the solid turns liquid. As for `Cc1c(Nc2nc3c(C(N)=S)c(N)sc3s2)c(=O)n(-c2ccccc2)n1C` [Compound 3d, 5-Amino-2-((1,5-dimethyl-3-oxo-2-phenyl-2,3-dihydro-1H-pyrazol-4-yl)amino) thieno[3,2-d]thiazole-6-carbothioamide], the melting point was 297 to 299 °C. Moreover, the MIC in the data set on C. albicans ATCC 10231 [1] came to 132 µM (≈ 55.1 µg/mL). Also, in the data set with P. aeruginosa [2], the MIC was determined as 67 µM (≈ 27.9 µg/mL). The MIC in the data set with E. coli RCMB 010052 [3] came to 71.8 µM (≈ 29.9 µg/mL). Besides, the MIC in the data set with S. pneumoniae 010010 [4] was 16.2 µM (≈ 6.74 µg/mL). For the same compound, in the data set with S. aureus 25923 [5], the zone of inhibition at 500 µg/mL stood at 13 ± 0.95 mm. In addition, the zone of inhibition at 500 µg/mL in the data set on S. pneumoniae 010010 [6] was 28 ± 0.45 mm. For the same compound, in the data set on P. aeruginosa [7], the zone of inhibition at 500 µg/mL was determined as 20 ± 0.19 mm. In addition, in the data set with E. coli RCMB 010052 [8], the zone of inhibition at 500 µg/mL was 22 ± 0.14 mm. Also, the zone of inhibition at 500 µg/mL in the data set with S. typhi ATCC 14028 [9] was 18 ± 0.13 mm. Moreover, in the data set with A. fumigatus RCMB 02568 [10], the zone of inhibition at 500 µg/mL came to 19 ± 0.45 mm. Further, in the data set on C. albicans ATCC 10231 [11], the zone of inhibition at 500 µg/mL was 16 ± 0.28 mm. Also, the MIC in the data set on A. fumigatus RCMB 02568 [12] is 118 µM (≈ 49.1 µg/mL). Further, the MIC with S. typhi ATCC 14028 [13] is 121 µM (≈ 50.6 µg/mL). The IC50 in the data set with HepG-2 cells came to 16.91 ± 0.01 µM. Besides, the MIC in the data set with E. faecalis [14] came to 75.5 µM (≈ 31.4 µg/mL). In addition, the IC50 with MCF-7 cells came to 18.19 ± 0.01 µM. The MIC in the data set on S. aureus 25923 [15] was found to be 181 µM (≈ 75.4 µg/mL). Further, the zone of inhibition at 500 µg/mL in the data set with E. faecalis [16] is 22 ± 0.11 mm.
Compound `Cc1c(Nc2nc3c(s2)sc(=S)n3C)c(=O)n(-c2ccccc2)n1C` [Compound 5c, 1,5-Dimethyl-4-((4-methyl-5-thioxo-4,5-dihydrothiazolo[4,5-d]thiazol-2-yl)amino)-2-phenyl-1H-pyrazol-3(2H)-one] yielded a melting point of 189 to 191 °C. In the data set with C. albicans ATCC 10231 [1], the MIC was found to be 79.4 µM (≈ 30.9 µg/mL). Also, the minimal inhibitory concentration (MIC) in the data set on P. aeruginosa [2] turned out to be 62.2 µM (≈ 24.2 µg/mL). For the same compound, the MIC in the data set on E. coli RCMB 010052 [3] is 20.8 µM (≈ 8.08 µg/mL). For the same compound, the MIC in the data set with S. pneumoniae 010010 [4] turned out to be 178 µM (≈ 69.4 µg/mL). The zone of inhibition at 500 µg/mL with S. aureus 25923 [5] worked out at 20 ± 0.08 mm. Also, the zone of inhibition at 500 µg/mL in the data set on S. pneumoniae 010010 [6] came out at 15 ± 0.86 mm. For the same compound, the zone of inhibition at 500 µg/mL with P. aeruginosa [7] is 22 ± 0.48 mm. For the same compound, the zone of inhibition at 500 µg/mL with E. coli RCMB 010052 [8] turned out to be 25 ± 0.1 mm. Further, in the data set on S. typhi ATCC 14028 [9], the zone of inhibition at 500 µg/mL is 17 ± 0.78 mm. For the same compound, the zone of inhibition at 500 µg/mL with A. fumigatus RCMB 02568 [10] was 26 ± 0.17 mm. In the data set on C. albicans ATCC 10231 [11], the zone of inhibition at 500 µg/mL stood at 19 ± 0.23 mm. Besides, the MIC in the data set with A. fumigatus RCMB 02568 [12] was 17.8 µM (≈ 6.95 µg/mL). The MIC with S. typhi ATCC 14028 [13] came to 125 µM (≈ 48.8 µg/mL). Also, in the data set with HepG-2 cells, the IC50 is 11.85 ± 0.03 µM. Further, in the data set on E. faecalis [14], the MIC stood at 18.9 µM (≈ 7.35 µg/mL). Moreover, the IC50 in the data set with MCF-7 cells amounted to 14.69 ± 0.03 µM. For the same compound, the MIC with S. aureus 25923 [15] stood at 68.8 µM (≈ 26.8 µg/mL). For the same compound, the zone of inhibition at 500 µg/mL in the data set on E. faecalis [16] is 24 ± 0.89 mm.
